In ChEMBL document CHEMBL1154658, “Novel macrocyclic inhibitors of hepatitis C NS3/4A protease featuring a 2-amino-1,3-thiazole as a P4 carbamate replacement” (J Med Chem, 2009):

Legend:
Hepatitis C virus [1] = assay: Inhibition of HCV 1b NS3/4A protease by time-resolved fluorescence assay; set-up: species or system Hepatitis C virus subtype 1b
Hepatitis C virus [2] = assay: Antiviral activity against HCV 1b infected in human Huh7 cells by bicistronic replicon RNA assay in presence of 10% fetal bovine serum; type: functional, organism-based, Hepacivirus hominis; conditions: genotype 1b, Huh-7
Hepatitis C virus [3] = assay: Antiviral activity against HCV 1b infected in human Huh7 cells by bicistronic replicon RNA assay in presence of 50% normal human serum; type: functional, organism-based, Hepacivirus hominis; conditions: genotype 1b, Huh-7
[4] = (§1) AUC (0 to 4 hrs) in Sprague-Dawley rat at 5 mg/kg, po; type: ADME, organism-based, Plasma; set-up: time < 4 hr, dose 5 mg/kg, route oral; conditions: Sprague-Dawley, plasma
[5] = Drug level in Sprague-Dawley rat liver at 5 mg/kg, po after 4 hrs; type: ADME, organism-based; set-up: dose 5 mg/kg, route oral; conditions: read-out: Drug uptake
[6] = Selectivity for HCV NS3/4A protease over trypsin
[7] = Selectivity for HCV NS3/4A protease over chymotrypsin
Rattus norvegicus [8] = assay: Plasma clearance in Sprague-Dawley rat at 5 mg/kg, po; type: ADME, organism-based; set-up: dose 5 mg/kg, route oral; conditions: in vivo
Rattus norvegicus [9] = assay: as §1; type: ADME, organism-based, Plasma; set-up: time < 4 hr, dose 5 mg/kg, route oral; conditions: in vivo, 4 h
[10] = Oral bioavailability in Sprague-Dawley rat at 5 mg/kg; type: ADME, organism-based; conditions: in vivo
[11] = Drug level in Sprague-Dawley rat liver at 4 mg/kg, po after 4 hrs; type: ADME, organism-based; set-up: dose 4 mg/kg, route oral; conditions: read-out: Drug uptake
[12] = Oral bioavailability in Sprague-Dawley rat at 4 mg/kg; type: ADME, organism-based; conditions: in vivo
[13] = (§2) Plasma clearance in Sprague-Dawley rat at 4 mg/kg, po; type: ADME, organism-based; set-up: dose 4 mg/kg, route oral; conditions: Sprague-Dawley, plasma
[14] = (§3) AUC (0 to 4 hrs) in Sprague-Dawley rat at 4 mg/kg, po; type: ADME, organism-based, Plasma; set-up: time < 4 hr, dose 4 mg/kg, route oral; conditions: Sprague-Dawley, plasma
Rattus norvegicus [15] = assay: as §2; type: ADME, organism-based; set-up: dose 4 mg/kg, route oral; conditions: in vivo
Rattus norvegicus [16] = assay: as §3; type: ADME, organism-based, Plasma; set-up: time < 4 hr, dose 4 mg/kg, route oral; conditions: in vivo, 4 h

| Structure (SMILES) | EC50 (Hepatitis C virus [2]) | AUC(0-t) at 4 h [4] | concentration at 4 h [5] | Ki (Hepatitis C virus [1]) | EC50 (Hepatitis C virus [3]) | further results |
| --- | --- | --- | --- | --- | --- | --- |
| C=C[C@@H]1C[C@]1(NC(=O)[C@@H]1C[C@@H]2CN1C(=O)[C@H](C(C)(C)C)Nc1nc(cs1)CCCCc1ccc3ccnc(c3c1)O2)C(=O)NS(=O)(=O)C1CC1.O=C(O)C(F)(F)F | 20 nM | 0.1 µM·h | 1000 nM | 0.2 nM | 130 nM |  |
| C=C[C@@H]1C[C@]1(NC(=O)[C@@H]1C[C@@H]2CN1C(=O)[C@H](C(C)C)Nc1nc(cs1)CCCCCc1ccc3ccnc(c3c1)O2)C(=O)NS(=O)(=O)C1CC1 | 120 nM |  |  | 1.5 nM | 830 nM |  |
| C=C[C@@H]1C[C@]1(NC(=O)[C@@H]1C[C@@H]2CN1C(=O)[C@H]([C@@H](C)CC)Nc1nc(cs1)CCC/C=C/c1cccc3c1CN(C3)C(=O)O2)C(=O)NS(=O)(=O)C1CC1 |  |  |  |  |  | fold change (FC) [6]: > 15000; fold change (FC) [7]: > 15000 |
| C=C[C@@H]1C[C@]1(NC(=O)[C@@H]1C[C@@H]2CN1C(=O)[C@H](C(C)C)Nc1nc(cs1)C(C)(C)CCCc1ccc3ccnc(c3c1)O2)C(=O)NS(=O)(=O)C1CC1.O=C(O)C(F)(F)F | 20 nM | 0.8 µM·h | 3600 nM | 3 nM | 100 nM |  |
| C=C[C@@H]1C[C@]1(NC(=O)[C@@H]1C[C@@H]2CN1C(=O)[C@H](C(C)(C)C)NC(=O)OCCCCCc1ccc3ccnc(c3c1)O2)C(=O)NS(=O)(=O)C1CC1 | 8.7 nM | 0.27 µM·h | 13400 nM | 0.2 nM | 46 nM |  |
| C=C[C@@H]1C[C@]1(NC(=O)[C@@H]1C[C@@H]2CN1C(=O)[C@H](C(C)C)NC1=NN=C(CCCCc3ccc4ccnc(c4c3)O2)O1)C(=O)NS(=O)(=O)C1CC1 | 80 nM | 0.1 µM·h | 30 nM | 0.9 nM | 180 nM |  |

More lines, main results first:

| EC50 (Hepatitis C virus [2]) | AUC(0-t) at 4 h [4] | concentration at 4 h [5] | Structure (SMILES) | Ki (Hepatitis C virus [1]) | EC50 (Hepatitis C virus [3]) | further results |
| --- | --- | --- | --- | --- | --- | --- |
| 4 nM |  | 60 nM | C=C[C@@H]1C[C@]1(NC(=O)[C@@H]1C[C@@H]2CN1C(=O)[C@H](C(C)(C)C)Nc1nc(cs1)CCCCCc1cccc3c1CN(C3)C(=O)O2)C(=O)NS(=O)(=O)C1CC1.O=C(O)C(F)(F)F | 0.16 nM | 19 nM | CL (Rattus norvegicus [8]): 95 mL/min/kg; AUC (Rattus norvegicus [9]): 0.06 µM·h; bioavailability [10]: 5% |
| 2 nM |  |  | C=C[C@@H]1C[C@]1(NC(=O)[C@@H]1C[C@@H]2CN1C(=O)[C@H](C1CCCC1)Nc1nc(cs1)CCC/C=C/c1cccc3c1CN(C3)C(=O)O2)C(=O)NS(=O)(=O)C1CC1.O=C(O)C(F)(F)F | 0.08 nM | 16 nM | concentration at 4 h [11]: 180 nM; EC90 (Hepatitis C virus [2]): 3 nM; EC90 (Hepatitis C virus [3]): 34 nM; bioavailability [12]: 36%; CL/F [13]: 25 mL/min/kg; AUC(0-t) at 4 h [14]: 0.7 µM·h |
| 3 nM |  |  | C=C[C@@H]1C[C@]1(NC(=O)[C@@H]1C[C@@H]2CN1C(=O)[C@H](C1CCCCC1)Nc1nc(cs1)CCC/C=C/c1cccc3c1CN(C3)C(=O)O2)C(=O)NS(=O)(=O)C1CC1.O=C(O)C(F)(F)F | 0.04 nM | 16 nM | concentration at 4 h [11]: 350 nM; bioavailability [12]: 8%; CL (Rattus norvegicus [15]): 17 mL/min/kg; AUC (Rattus norvegicus [16]): 0.4 µM·h |
